Tests used:
[1] = target: GDP-bound NRAS wild-type protein (Homo sapiens, UniProt P01111); experiment: Binding to NRAS by surface plasmon resonance (SPR), Single Cycle Kinetics; conditions: SPR; KD ratio class
[2] = test system: human lung cancer strain NCI-H441; experiment: cells; conditions: NCI-H441, 96 h, read-out: NCI-H441 IC50 (nM)
[3] = target: GDP-bound HRAS wild-type protein (Homo sapiens, UniProt P01112); experiment: Binding to HRAS by surface plasmon resonance (SPR), Single Cycle Kinetics; conditions: SPR; KD ratio class
Chain of GDP-bound HRAS wild-type protein (P01112 whole entry): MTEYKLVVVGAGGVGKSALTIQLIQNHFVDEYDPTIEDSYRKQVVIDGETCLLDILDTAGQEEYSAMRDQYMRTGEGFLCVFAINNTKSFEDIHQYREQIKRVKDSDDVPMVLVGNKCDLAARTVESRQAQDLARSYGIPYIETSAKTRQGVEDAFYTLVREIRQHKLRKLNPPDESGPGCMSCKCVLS

Chain of GDP-bound NRAS wild-type protein (P01111 whole entry): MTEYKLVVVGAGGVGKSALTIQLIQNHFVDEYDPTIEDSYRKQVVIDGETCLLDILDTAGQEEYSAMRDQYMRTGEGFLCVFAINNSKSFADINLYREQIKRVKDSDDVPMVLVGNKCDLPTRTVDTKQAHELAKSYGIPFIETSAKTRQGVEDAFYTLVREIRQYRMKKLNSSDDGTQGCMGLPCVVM

Row | SMILES | IC50 [2] | NRAS/KRAS (ratio of KD value for GDP-bound NRAS wild-type protein to KD value for KRAS) [1] | HRAS/KRAS (ratio of KD value for GDP-bound HRAS wild-type protein to KD value for KRAS) [3]
1 | CCCOC[C@H]1C(=O)N[C@@H]([C@@H](C)CC)C(=O)N(C)CC(=O)N(C)[C@H]2C/C=C\CCN(C2=O)[C@@H](Cc2ccc(C)cc2)C(=O)N(C)CC(=O)N[C@@H](CCc2cc(F)c(C(F)(F)F)c(F)c2)C(=O)N2C[C@H](OCC)C[C@H]2C(=O)NC2(CC(C)(C)C2)C(=O)N(C)[C@@H](C2CCCC2)C(=O)N(C)[C@H](C(=O)N(C)CC)CC(=O)N1C [PP1577] | 6.7 nM | B (a compound having 3 or more and less than 10 is denoted as B) | B (a compound having 3 or more and less than 10 is denoted as B)
2 | CCCOC[C@H]1C(=O)N[C@@H]([C@@H](C)CC)C(=O)N(C)CC(=O)N(C)[C@H]2C/C=C\CCN(C2=O)[C@@H](Cc2ccc(C)cc2)C(=O)N(C)CC(=O)N[C@@H](CCc2cc(F)c(C(F)(F)F)c(F)c2)C(=O)N2C[C@H](OCC)C[C@H]2C(=O)NC2(CC(C)(C)C2)C(=O)N(C)[C@@H](C2CCCC2)C(=O)N(C)[C@H](C(=O)N(CC)CC)CC(=O)N1C [PP1578] | 12.6 nM | A (a compound having 10 or more and less than 20 is denoted as A) | A (a compound having 10 or more and less than 20 is denoted as A)
3 | CCO[C@@H]1C[C@H]2C(=O)NC3(CC(C)(C)C3)C(=O)N(C)[C@@H](C3CCCC3)C(=O)N(C)[C@H](C(=O)N(C)CC)CC(=O)N(C)[C@@H](CC)C(=O)N[C@@H]([C@@H](C)CC)C(=O)N(C)CC(=O)N(C)[C@H]3C/C=C\CCN(C3=O)[C@@H](Cc3ccc(C(F)(F)F)cc3)C(=O)N(C)CC(=O)N[C@@H](CCc3cc(F)c(C(F)(F)F)c(F)c3)C(=O)N2C1 [PP1579] | 4.1 nM | A (a compound having 10 or more and less than 20 is denoted as A) | B (a compound having 3 or more and less than 10 is denoted as B)
4 | CCO[C@@H]1C[C@H]2C(=O)NC3(CCC3)C(=O)N(C)[C@@H](C3CCCC3)C(=O)N(C)[C@H](C3CCCCC3)CC(=O)N(C)[C@@H](COC)C(=O)N[C@@H]([C@@H](C)CC)C(=O)N(C)CC(=O)N(C)[C@H]3C/C=C\CCN(C3=O)[C@@H](Cc3ccc(C(F)(F)F)cc3)C(=O)N(C)CC(=O)N[C@@H](CCc3cc(F)c(C(F)(F)F)c(F)c3)C(=O)N2C1 [PP1584] | 66.4 nM | B (a compound having 3 or more and less than 10 is denoted as B) | B (a compound having 3 or more and less than 10 is denoted as B)
5 | CCO[C@@H]1C[C@H]2C(=O)NC3(CC(C)(C)C3)C(=O)N(C)[C@@H](C3CCCC3)C(=O)N(C)[C@H](C(C)C)CC(=O)N(C)[C@@H](CC)C(=O)N[C@@H]([C@@H](C)CC)C(=O)N(C)CC(=O)N(C)[C@H]3C/C=C\CCN(C3=O)[C@@H](Cc3ccc(C(F)(F)F)cc3)C(=O)N(C)CC(=O)N[C@@H](CCc3cc(F)c(C(F)(F)F)c(F)c3)C(=O)N2C1 [PP1588] | 24.2 nM | B (a compound having 3 or more and less than 10 is denoted as B) | B (a compound having 3 or more and less than 10 is denoted as B)
6 | CCO[C@@H]1C[C@H]2C(=O)NC3(CC(C)(C)C3)C(=O)N(C)[C@@H](C3CCCC3)C(=O)N(C)[C@@H](C(C)C)CC(=O)N(C)[C@@H](CC3CC3)C(=O)N[C@@H]([C@@H](C)CC)C(=O)N(C)CC(=O)N(C)[C@H]3C/C=C\CCN(C3=O)[C@@H](Cc3ccc(C(F)(F)F)cc3)C(=O)N(C)CC(=O)N[C@@H](CCc3cc(F)c(C(F)(F)F)c(F)c3)C(=O)N2C1 [PP1594] | 48.8 nM | A (a compound having 10 or more and less than 20 is denoted as A) | A (a compound having 10 or more and less than 20 is denoted as A)
7 | CCO[C@@H]1C[C@H]2C(=O)NC3(CCC3)C(=O)N(C)[C@@H](C3CCCC3)C(=O)N(C)[C@H](C(C)C)CC(=O)N(C)[C@@H](CC)C(=O)N[C@@H]([C@@H](C)CC)C(=O)N(C)CC(=O)N(C)[C@H]3C/C=C\CCN(C3=O)[C@@H](CC3CCCCC3)C(=O)N(C)CC(=O)N[C@@H](CCc3cc(F)c(C(F)(F)F)c(F)c3)C(=O)N2C1 [PP1601] | 78.6 nM | B (a compound having 3 or more and less than 10 is denoted as B) | A (a compound having 10 or more and less than 20 is denoted as A)

More lines, main results first:

Row | IC50 [2] | SMILES | NRAS/KRAS (ratio of KD value for GDP-bound NRAS wild-type protein to KD value for KRAS) [1] | HRAS/KRAS (ratio of KD value for GDP-bound HRAS wild-type protein to KD value for KRAS) [3]
8 | 11.1 nM | CCCOC[C@H]1C(=O)N[C@@H]([C@@H](C)CC)C(=O)N(C)CC(=O)N(C)[C@H]2C/C=C\CCN(C2=O)[C@@H](Cc2ccc(C(F)(F)F)cc2)C(=O)N(C)CC(=O)N[C@@H](CCc2cc(F)c(C(F)(F)F)c(F)c2)C(=O)N2C[C@H](OCC)C[C@H]2C(=O)NC2(CC(C)(C)C2)C(=O)N(C)[C@@H](C2CCCC2)C(=O)N(C)[C@H](C(=O)N(CC)CC)CC(=O)N1C [PP1575] | B (a compound having 3 or more and less than 10 is denoted as B) | B (a compound having 3 or more and less than 10 is denoted as B)
9 | 7.6 nM | CCCC[C@H]1C(=O)N[C@@H]([C@@H](C)CC)C(=O)N(C)CC(=O)N(C)[C@H]2C/C=C\CCN(C2=O)[C@@H](Cc2ccc(C(F)(F)F)cc2)C(=O)N(C)CC(=O)N[C@@H](CCc2cc(F)c(C(F)(F)F)c(F)c2)C(=O)N2C[C@H](OCC)C[C@H]2C(=O)NC2(CCC2)C(=O)N(C)[C@@H](C2CCCC2)C(=O)N(C)[C@H](C(=O)N(CC)CC)CC(=O)N1C [PP1576] | AA (a compound having 20 or more is denoted as AA) | A (a compound having 10 or more and less than 20 is denoted as A)
10 | 9.7 nM | CCO[C@@H]1C[C@H]2C(=O)NC3(CC(C)(C)C3)C(=O)N(C)[C@@H](C3CCCC3)C(=O)N(C)[C@H](C(=O)N(CC)CC)CC(=O)N(C)[C@@H](CC)C(=O)N[C@@H]([C@@H](C)CC)C(=O)N(C)CC(=O)N(C)[C@H]3C/C=C\CCN(C3=O)[C@@H](Cc3ccc(C(F)(F)F)cc3)C(=O)N(C)CC(=O)N[C@@H](CCc3cc(F)c(C(F)(F)F)c(F)c3)C(=O)N2C1 [PP1580] | A (a compound having 10 or more and less than 20 is denoted as A) | A (a compound having 10 or more and less than 20 is denoted as A)
